Measurements taken from publication PMC11459959, “Discovery of new acetamide derivatives of 5-indole-1,3,4-oxadiazol-2-thiol as inhibitors of HIV-1 Tat-mediated viral transcription” (Antimicrobial Agents and Chemotherapy, 2024).

Key:
Type in all cases: cell-based
[1] = test system: PI-resistant HIV-1 strain 11800; experiment: microbe, parasite or virus in culture; details: Human immunodeficiency virus 1, PBMC
Text: (§1) The Tzm-bl-derived dual Tat reporter; TZM-bl/Tat/Rluc (bl-DTR) cells were established from TZM-bl cells using two Dox-inducible lentiviral expression cassettes cloned with Flag-tagged Tat86 and the R-Luc gene, as described in our previous study ([11]). TZM-bl, A3.01, J1.1, and J-Lat 6.3 cells as well as the HIV-1 molecular clone pNL4-3, pNL(AD8), ARV-resistant HIV-1 strains, and HIV-1NL43-IRES-eGFP (pBR43IeG-nef^+, gifted by Dr. Frank Kirchhoff) ([52]) were provided by the National Institute of Health HIV Reagent Program (NIH, Bethesda, MD, USA). HeLa (CCL-2) and 293T (CRL-3216) cell lines were purchased from the American Type Culture Collection (ATCC, Manassas, VA, USA). The bl-DTR, TZM-bl, HeLa, and 293T cells were cultured in Dulbecco’s modified Eagle’s medium supplemented with 1% penicillin–streptomycin and 10% (vol/vol) heat-inactivated fetal bovine serum (all from Gibco-BRL, Gaithersburg, MD, USA), and 1 µg/mL of puromycin and 200 µg/mL of zeocin were additionally supplemented for the bl-DTR cells. PBMCs were purchased from AllCells (Alameda, CA, USA) and cultured as previously described ([12]). The information on ARV-resistant HIV-1 strains was described in previous reports as follows: NNRTI-resistant 12241 and 12243 ([53]); NRTI-resistant 7396, 7406, and 7407 ([54]); INSTI-resistant 11847 and 11849 ([55], [56]); and PI-resistant 11800 and 11803 ([57]). Each molecular HIV-1 clone was transfected to 293T cells, as previously described ([58]), to obtain infectious HIV-1 particles. Virus-containing cell culture supernatants were collected 3 days after transfection, and filtered through a 0.45-µm membrane filter (Millipore Sigma, Burlington, MA, USA) to remove cell debris. The viral titration was performed as described previously ([59]) with some minor modifications. In brief, 1 × 10^4 TZM-bl cells seeded in 96-well plates were infected with 200 µL of virus-containing medium diluted serially twofold. The incubation was for 2 days and the experiment was performed in triplicate; the infection time minimized the virus spread ([59]). The titration of the infectious viral particles was performed with a ß-Gal staining assay using the ßeta-Galactosidase Staining Kit (Mirus Bio, Madison, WI, USA) following the manufacturer’s protocols. In brief, the infected cells were washed with phosphate-buffered saline (PBS) and fixed using a Cell Fixative Working solution. The cells were washed with PBS and stained using the Cell Staining Working Solution containing X-gal. The infected blue-colored cells were counted under a microscope (100× magnification). The infectious virus titer was determined as a mean value of blue-colored cells count × dilution factor and used for determining the multiplicity of infection (MOI) in each infection experiment.
(§2) The inhibitory effects of the compounds on viral replication were determined with some minor modifications, as previously described ([12], [62]). […] PBMCs (4 × 10^5) pre-activated with PHA-M for 3 days were washed with fresh media to remove excess PHA-M and subsequently infected with HIV-1NL4-3 or HIV-1AD8 or PIs-resistant HIV-1 strains as A3.01 infection. After infection, the infectious media were replaced with fresh media supplemented with international 10 units (IU)/mL of IL-2 and the indicated compounds. At 72 h after infection, the inhibitory effect of the compounds on viral replication was determined by measuring the p24 amount, an HIV capsid protein, using an HIV-1 p24 […] kit (PerkinElmer, Waltham, MA, USA). Cell viability was determined as described above. The inhibitory effects on provirus reversing in J1.1 and J-Lat 6.3 cells were determined as previously described ([12], [41], [63]) with some minor modifications.

[2] = test system: PI-resistant HIV-1 strain 11803; experiment: microbe, parasite or virus in culture; details: Human immunodeficiency virus 1, PBMC
Text: as §1, §2

[3] = biological target: T1, interaction between Tat and cyclin T1 (Human immunodeficiency virus type 1 group M subtype B, UniProt P04608); experiment: Co-immunoprecipitation of Tat and cyclin T1; details: co-immunoprecipitation in transfected cells
T1 construct: expressed in transfected cells; the methods paragraph b60 says 293T
Description: The co-immunoprecipitation assay was performed as previously described ([12], [58]). Briefly, 293T cells were transfected with Tat-expressing plasmids (pcDNA3–Flag–Tat86) using Lipofectamine 2000 (Invitrogen). After 48 h, the cells were lysed in an immunoprecipitation buffer [250 mM NaCl, 0.5% NP-40, 50 mM Tris-HCl (pH 7.5), 5 mM ethylenediaminetetraacetic acid, and protease/phosphatase inhibitor cocktail]. The cell lysates were subsequently incubated with an anti-Flag monoclonal antibody (M2; Sigma-Aldrich) at 4°C. After overnight incubation, the immune complex was then pulled down with protein A/G-agarose beads (Santa Cruz Biotechnology) and analyzed using western blotting.
Supplementary Figure S6. A. Quantitativereal-timePCRofHIV-1mRNAfromHIV-1 NL4-3-infectedA3.01cells treated oruntreatedwiththeindicatedcompoundswasperformedusingthe envprimerset,andlevelswerenormalizedtothoseof gapdh. Thedata
represent the relative fold change compared with DMSO treatment (n = 3).B. Effect of the compounds on NF-κB promoter activity assessed using a luciferase assay. […]
pCMV-R-Luc (200 ng). […] Theluciferase activity was determined using aDual-GloTMLuciferase assaykit (Promega).
The data normalized to the R-Luc activity are expressed as themean±SD (n = 3) of the relative fold activitycompared with the no-PMA(vehicle) treatment.C. […]

T1 sequence (P04608 whole entry): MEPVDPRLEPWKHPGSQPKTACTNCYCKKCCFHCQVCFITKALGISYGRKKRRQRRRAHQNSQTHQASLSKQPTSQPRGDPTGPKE

In the case of `Cc1[nH]c2ccc(-c3nnc(SCC(=O)N4CCCCC4)o3)cc2c1C` [Compound 9, 2-((5-(2,3-Dimethyl-1H-indol-5-yl)-1,3,4-oxadiazol-2-yl)thio)-1-(piperidin-1-yl)ethan-1-one], the EC50 [1] is reported as 540 ± 250 nM, the EC50 [2] is reported as 260 ± 80 nM and the “change in interaction between Tat and cyclin T1” value [3] is reported as “no changes were observed”.
For `Cc1[nH]c2ccc(-c3nnc(SCC(=O)N4CCCC4)o3)cc2c1C` [Compound 13, 2-((5-(2,3-Dimethyl-1H-indol-5-yl)-1,3,4-oxadiazol-2-yl)thio)-1-(pyrrolidin-1-yl)ethan-1-one], the EC50 [1] was 810 ± 30 nM, the EC50 [2] was 280 ± 40 nM and the “change in interaction between Tat and cyclin T1” value [3] was “no changes were observed”.
